# Source: patent US5256682A, “Isoxazolylimidazole derivatives, process for their production and their use in pharmaceutical agents” (Schering Aktiengesellschaft, priority 1991, dated 1993)
# Experiment: Metabolic stability: % of test substance remaining after incubation with mouse liver homogenate
# Type: in vitro ADME
# Settings: amount not catabolized, in % of the zero value; 120 minutes, 37° C., pH 7.3; NMRI mouse liver homogenate; HPLC; read-out: % Radical after incubation with mouse liver homogenate
# Protocol: The stability of the compounds was measured as follows:
# The test substance (1 μg/50 μl of ethanol) was adjusted with 750 μl of Krebs-Henseleit-Ringer phosphate buffer to pH 7.3 and brought together with 750 μl of a liver homogenate at room temperature and mixed. 250 μl of this batch was removed for zero-point determination and the batch was incubated at 37° C. with continuous movement in a water bath. Aliquot parts of 250 μl are removed after 120 minutes, extracted with 3 ml of diethyl ether after 5 minutes of shaking, then centrifuged for 10 minutes under cooling, frozen, the ether is decanted and dried in a dry nitrogen stream. The residue is dissolved in each case in 200 μl of ethanol and the solution is analyzed with HPLC. The liver used was obtained from NMRI mice and homogenized after removal immediate in 4 parts of a 0.25 molar sucrose solution in a Potter-Elvehjem mixer. The homogenate was then filtered through linen and diluted with the same sucrose solution to 1:10 (weight: volume). Aliquot parts of the solution were stored at -18° C.
row,remaining at 2 h,SMILES
1,31%,"CCc1nc(-c2ncn(-c3cccc(Oc4ccccc4)c3)c2C)no1 [A, 4-(5-ethyl-1,2,4-oxadiazol-3-yl)-5-methyl-1-(3-phenoxy-phenyl)-imidazole, reference compound]"
2,95%,"CCc1cc(-c2ncn(-c3cccc(Oc4ccccc4)c3)c2C)on1 [B, 4-(3-Ethyl-isoxazol-5-yl)-5-methyl-1-(3-phenoxyphenyl)imidazole]"
3,100%,"COCc1cc(-c2ncn(-c3cccc(Oc4ccccc4)c3)c2C)on1 [D, 4-(3-Methoxymethyl-isoxazol-5-yl)-5-methyl-1-(3-phenoxyphenyl)-imidazole]"

row,SMILES,remaining at 2 h
1,"CCc1cc(-c2ncn(-c3cccc(Oc4ccccc4)c3)c2C)no1 [C, 4-(5-Ethyl-isoxazol-3-yl)-5-methyl-1-(3-phenoxyphenyl)imidazole]",71%
